This assay addresses T1, cPLA2 crudely purified from the cytoplasm fraction of U937 (Homo sapiens, UniProt P47712).
T1 construct: cPLA2 crudely purified from the cytoplasm fraction of U937; endogenous in cells; host or cells: U937 cells (cytoplasm fraction, crude purification)
T1 sequence (P47712 1-749): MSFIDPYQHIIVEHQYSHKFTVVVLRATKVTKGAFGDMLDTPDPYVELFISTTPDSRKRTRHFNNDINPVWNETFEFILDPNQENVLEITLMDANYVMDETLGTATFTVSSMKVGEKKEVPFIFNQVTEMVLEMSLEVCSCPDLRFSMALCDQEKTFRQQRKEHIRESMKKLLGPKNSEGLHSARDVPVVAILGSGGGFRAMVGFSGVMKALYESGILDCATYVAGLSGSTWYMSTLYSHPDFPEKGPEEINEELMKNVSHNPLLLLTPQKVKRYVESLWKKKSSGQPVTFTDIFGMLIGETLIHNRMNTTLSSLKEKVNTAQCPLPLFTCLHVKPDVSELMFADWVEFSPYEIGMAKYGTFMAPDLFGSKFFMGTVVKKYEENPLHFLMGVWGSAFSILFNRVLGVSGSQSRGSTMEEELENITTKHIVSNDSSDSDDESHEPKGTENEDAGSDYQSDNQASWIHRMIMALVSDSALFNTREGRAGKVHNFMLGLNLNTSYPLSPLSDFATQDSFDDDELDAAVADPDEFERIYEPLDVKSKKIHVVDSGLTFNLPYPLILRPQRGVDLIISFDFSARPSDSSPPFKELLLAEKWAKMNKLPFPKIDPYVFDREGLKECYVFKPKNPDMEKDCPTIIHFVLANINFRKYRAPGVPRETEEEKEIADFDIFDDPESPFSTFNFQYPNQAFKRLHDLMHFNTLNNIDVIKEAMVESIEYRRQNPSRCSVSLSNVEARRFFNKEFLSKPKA
The experiment in a line: Measurement of cPLA2 inhibitory activity (release of [14C]-arachidonic acid from phosphatidyl choline liposome). It counts as biochemical. The protocol: The cPLA2 inhibitory activity was measured based on the method described in the document [See H. Naraba et al., J. Immunol. 160, 2974-2982 (1998)] and modified in the following way.
A DMSO solution of the present invitation compounds was diluted to 2.5 times the final concentration with the assay buffer (4 mM CaCl2, 2 mM dithiothreitol, 150 mM NaCl, 50 mM HEPES buffer solution (pH7.5)) containing 0.55 mg/ml BSA. To 20 μl of this, cPLA2 crudely purified from the cytoplasm fraction of U937 was added in an amount of 10 μl after dilution by an assay buffer solution containing 0.55 mg/ml BSA. A liposome prepared by ultrasonically treating L-α-1-palmitoyl-2-[14C]arachidonyl-phosphatidyl choline (made by PerkinElmer) and adjusted by the assay buffer solution to a concentration of phosphatidyl choline of 10 μM was added and stirred in by an amount of 20 μl and the mixture was reacted at 37° C. for 60 minutes. The [^14C]-arachidonic acid released due to the reaction was extracted based on the method described in the documents [see V. P. Dole et al., J. Biol. Chem. 235, 2595 (1960)], was added to Lumaplate® (made by PerkinElmer), dried, then measured by Topcount® (made by PerkinElmer). Except for not adding the present invention compounds, the same procedure was performed as the above to obtain the enzyme control. Except for not adding the invention compounds and not adding the enzyme, the same procedure was followed as above to obtain a negative control. The inhibiting activity was expressed as a percent (%) of the value minus the negative control with respect to the value of the enzyme control minus the negative control. From this, the 50% inhibiting concentration (IC50, μM) was calculated.

[1] abbreviates: cPLA2 from U937 cytoplasm fraction, [14C]arachidonyl-phosphatidyl choline liposome, 37° C., 60 minutes, read-out: cPLA2 inhibitory activity, 50% inhibiting concentration IC50.

The structures appear in SMILES notation. Structures can show the parent of a compound that is named as a salt. Where two headings read alike, the source gives them in different places.

In the case of `O=C(O)CCc1ccc2c(c1)c(CCc1ccc(Cl)cc1)cn2-c1ccccc1` [Example 58, 3-{3-[2-(4-chlorophenyl)ethyl]-1-phenyl-1H-indol-5-yl}propanoic acid 2-amino-2-(hydroxymethyl)propane-1,3-diol salt (1:1)], the IC50 under setting [1] was 1160 nM. In the case of `O=C(O)/C=C/c1ccc2c(c1)c(C(=O)Cc1ccc(F)cc1)cn2-c1ccccc1` [Example 60, (2E)-3-{3-[(4-fluorophenyl)acetyl]-1-phenyl-1H-indol-5-yl}-2-propenoic acid], the IC50 was 5720 nM. Compound `O=C(O)CCc1ccc2c(c1)c(C(=O)Cc1ccc(F)cc1)cn2-c1ccccc1` [Example 61, 3-{3-[(4-fluorophenyl)acetyl]-1-phenyl-1H-indol-5-yl}propanoic acid] came in with an IC50 of 653 nM.

As for `O=C(O)CCc1ccc2c(c1)c(CCc1ccc(F)cc1)cn2-c1ccccc1` [Example 62, 3-{3-[2-(4-fluorophenyl)ethyl]-1-phenyl-1H-indol-5-yl}propanoic acid 2-amino-2-(hydroxymethyl)propane-1,3-diol salt (1:1)], the IC50 under setting [1] is 565 nM.

`COc1ccc(CC(=O)c2cn(-c3ccccc3)c3ccc(/C=C/C(=O)O)cc23)cc1` [Example 64, (2E)-3-{3-[(4-methoxyphenyl)acetyl]-1-phenyl-1H-indol-5-yl}-2-propenoic acid] came in with an IC50 of 19600 nM. Still for that read-out and setting: in the case of `COc1ccc(CC(=O)c2cn(-c3ccccc3)c3ccc(CCC(=O)O)cc23)cc1` [Example 65, 3-{3-[(4-methoxyphenyl)acetyl]-1-phenyl-1H-indol-5-yl}propanoic acid] it was 1910 nM.

In the case of `COc1ccc(CCc2cn(-c3ccccc3)c3ccc(CCC(=O)O)cc23)cc1` [Example 66, 3-{3-[2-(4-methoxyphenyl)ethyl]-1-phenyl-1H-indol-5-yl}propanoic acid 2-amino-2-(hydroxymethyl)propane-1,3-diol salt (1:1)], the IC50 under setting [1] was 718 nM. `COc1cccc(CCc2cn(-c3ccccc3)c3ccc(CCC(=O)O)cc23)c1` [Example 68, 3-{3-[2-(3-methoxyphenyl)ethyl]-1-phenyl-1H-indol-5-yl}propanoic acid 2-amino-2-(hydroxymethyl)propane-1,3-diol salt (1:1)]: the IC50 under setting [1] was found to be 1000 nM. On the same count and under the same terms, the same measure for `COc1ccc(CCc2cn(-c3ccccc3)c3ccc(CCC(=O)O)cc23)cc1OC` [Example 70, 3-{3-[2-(3,4-dimethoxyphenyl)ethyl]-1-phenyl-1H-indol-5-yl}propanoic acid 2-amino-2-(hydroxymethyl)propane-1,3-diol salt (1:1)]: 1360 nM. For `COc1ccc(-n2cc(CCc3ccccc3)c3cc(/C=C/C(=O)O)ccc32)cc1` [Example 74, (2E)-3-[1-(4-methoxyphenyl)-3-(2-phenylethyl)-1H-indol-5-yl]-2-propenoic acid], under setting [1], the IC50 came to 157 nM. `COc1ccc(-n2cc(CCc3ccccc3)c3cc(CCC(=O)O)ccc32)cc1` [Example 77, 3-[1-(4-methoxyphenyl)-3-(2-phenylethyl)-1H-indol-5-yl]propanoic acid 2-amino-2-(hydroxymethyl)propane-1,3-diol salt (1:1)]: the IC50 under setting [1] turned out to be 26 nM.

For the compound `O=C(O)CCc1ccc2c(c1)c(CCc1ccccc1)cn2-c1ccc(C(=O)O)cc1` [Example 79, 4-[5-(2-carboxyethyl)-3-(2-phenylethyl)-1H-indol-1-yl]benzoic acid], the IC50 under setting [1] was 180 nM. Still for that read-out and setting: in the case of `N#Cc1ccc(-n2cc(CCc3ccccc3)c3cc(CCC(=O)O)ccc32)cc1` [Example 81, 3-[1-(4-cyanophenyl)-3-(2-phenylethyl)-1H-indol-5-yl]propanoic acid] it was 58 nM. For `O=C(O)CCc1ccc2c(c1)c(CCc1ccccc1)cn2-c1ccc([N+](=O)[O-])cc1` [Example 83, 3-[1-(4-nitrophenyl)-3-(2-phenylethyl)-1H-indol-5-yl]propanoic acid], the IC50 under setting [1] came out at 101 nM. As for `CN(C)c1ccc(-n2cc(CCc3ccccc3)c3cc(CCC(=O)O)ccc32)cc1` [Example 85, 3-{1-[4-(dimethylamino)phenyl]-3-(2-phenylethyl)-1H-indol-5-yl}propanoic acid], the IC50 under setting [1] stood at 77 nM. On to `CN(C)c1ccc(-n2cc(CCc3ccccc3)c3cc(CCC(=O)O)ccc32)cc1` [Example 86, 3-{1-[4-(dimethylamino)phenyl]-3-(2-phenylethyl)-1H-indol-5-yl}propanoic acid 2-amino-2-(hydroxymethyl)propane-1,3-diol salt (1:1)], for which the IC50 under setting [1] was found to be 24 nM. In the case of `CCN(CC)c1ccc(-n2cc(CCc3ccccc3)c3cc(CCC(=O)O)ccc32)cc1` [Example 88, 3-{1-[4-(diethylamino)phenyl]-3-(2-phenylethyl)-1H-indol-5-yl}propanoic acid], under setting [1], the IC50 worked out at 142 nM. As to `CC(=O)Nc1ccc(-n2cc(CCc3ccccc3)c3cc(CCC(=O)O)ccc32)cc1` [Example 91, 3-{1-[4-(acetylamino)phenyl]-3-(2-phenylethyl)-1H-indol-5-yl}propanoic acid 2-amino-2-(hydroxymethyl)propane-1,3-diol salt (1:1)], under setting [1], the IC50 was found to be 207 nM.

Turning to `CC(C)(C)C(=O)Nc1ccc(-n2cc(CCc3ccccc3)c3cc(CCC(=O)O)ccc32)cc1` [Example 93, 3-[1-{4-[(2,2-dimethylpropanoyl)amino]phenyl}-3-(2-phenylethyl)-1H-indol-5-yl]propanoic acid 2-amino-2-(hydroxymethyl)propane-1,3-diol salt (1:1)], the IC50 under setting [1] stood at 112 nM. Turning to `Cc1ccc(-n2cc(CCc3ccccc3)c3cc(CCC(=O)O)ccc32)cc1` [Example 95, 3-[1-(4-methylphenyl)-3-(2-phenylethyl)-1H-indol-5-yl]propanoic acid 2-amino-2-(hydroxymethyl)propane-1,3-diol salt (1:1)], the IC50 under setting [1] was found to be 77 nM. In the case of `Cc1cccc(-n2cc(CCc3ccccc3)c3cc(CCC(=O)O)ccc32)c1` [Example 97, 3-[1-(3-methylphenyl)-3-(2-phenylethyl)-1H-indol-5-yl]propanoic acid 2-amino-2-(hydroxymethyl)propane-1,3-diol salt (1:1)], under setting [1], the IC50 is 99 nM.

Regarding `Cc1ccccc1-n1cc(CCc2ccccc2)c2cc(CCC(=O)O)ccc21` [Example 99, 3-[1-(2-methylphenyl)-3-(2-phenylethyl)-1H-indol-5-yl]propanoic acid 2-amino-2-(hydroxymethyl)propane-1,3-diol salt (1:1)], the IC50 under setting [1] worked out at 288 nM. Same read-out and setting: in the case of `Cc1ccc(-n2cc(CCc3ccccc3)c3cc(CCC(=O)O)ccc32)cc1C` [Example 101, 3-[1-(3,4-dimethylphenyl)-3-(2-phenylethyl)-1H-indol-5-yl]propanoic acid 2-amino-2-(hydroxymethyl)propane-1,3-diol salt (1:1)] it was 96 nM; in that of `CC(C)(C)c1ccc(-n2cc(CCc3ccccc3)c3cc(CCC(=O)O)ccc32)cc1` [Example 103, 3-[1-(4-tert-butylphenyl)-3-(2-phenylethyl)-1H-indol-5-yl]propanoic acid 2-amino-2-(hydroxymethyl)propane-1,3-diol salt (1:1)], 419 nM; in that of `O=C(O)CCc1ccc2c(c1)c(CCc1ccccc1)cn2-c1ccc(Cl)cc1` [Example 105, 3-[1-(4-chlorophenyl)-3-(2-phenylethyl)-1H-indol-5-yl]propanoic acid 2-amino-2-(hydroxymethyl)propane-1,3-diol salt (1:1)], 36 nM.

With `COc1cccc(-n2cc(CCc3ccccc3)c3cc(CCC(=O)O)ccc32)c1` [Example 107, 3-[1-(3-methoxyphenyl)-3-(2-phenylethyl)-1H-indol-5-yl]propanoic acid 2-amino-2-(hydroxymethyl)propane-1,3-diol salt (1:1)], the IC50 under setting [1] stood at 195 nM.

Source of the values: patent publication US8293781B2, “Indole derivatives having cPLA2 inhibiting activity and applications and production methods of the same” (Daiichi Sankyo Company, Limited, priority 2007, dated 2012).
